Laboratory results: patent US9782412B2, “Preventive and/or therapeutic agent of immune disease” (TAIHO PHARMACEUTICAL CO., LTD., priority 2015, dated 2017)

Tests used:
RBL-2H3 cells = test: Inhibitory activity against allergic reaction using RBL-2H3 cells (PGD2 production); assay type: cell-based, rat; conditions: Rattus norvegicus, RBL-2H3, RBL-2H3 cells, anti-DNP IgE / DNP-BSA; read-out: PGD2 production inhibitory concentration (IC50; (nM))
Procedure: Rat basophilic leukemia cells, RBL-2H3, were suspended in MEM medium containing 10% FBS, and then the cells were inoculated in a culture plate, and cultured in a CO2 incubator (Sanyo Electric Biomedical Co., Ltd.) at 37° C. for 12 hours. After a culture supernatant was removed and the cells were washed, an anti-DNP-mouse IgE (Alpha Diagnostic Inc.) solution was added thereto, and the cells were cultured in the CO2 incubator for 1 hour. After a culture supernatant was removed and the cells were washed, an MEM medium was added thereto.
Further, a DNP-BSA (LSL, Inc.) solution was added thereto and the cells were cultured in the CO2 incubator for 15 minutes. A culture supernatant was collected and reacted, with PGD2-MOX EIA kit (Cayman Chemical Inc.) on the basis of the protocol attached thereto, and absorbance was measured by SUNRISE RAINBOW THERMO (TECAM Inc.).

TNP-IgE mice = test: Mouse antigen-induced dermatitis model; assay type: in vivo; conditions: for Ear swelling control ratio (%): 30 minutes before allergen, 2 hours after antigen
Excerpt: Type I allergy models accompanied by a skin symptom (a dermatitis model) were produced, with TNP-IgE mice (CLEA Japan, Inc.). The mice are genetically modified BALB/c mice that constantly produce an IgE specific to hapten TNP (trinitrophenol) which is widely used as an allergen (antigen). It is possible to induce an allergic reaction in the mice, only by administering an allergen, without carrying out an immunization. […] An average value of thickening values of both ears was obtained as a value of an individual (provided that a previous value before the allergen application was 0 mm).
Ear swelling control ratio (%) was calculated by the following formula. Ear swelling control ratio (%)=(1−(Average value of ear thickening of compound administered group)/(Average value of ear thickening of vehicle administered group))×100

[1] = target: T1, recombinant human BTK protein (Homo sapiens, UniProt Q06187); test: Measurement of BTK inhibitory activity (in vitro); assay type: biochemical; conditions: ATP 45 μM, 40 minutes at 25° C.
T1 construct: purchased Carna Biosciences, Inc
T1 sequence (Q06187 whole entry): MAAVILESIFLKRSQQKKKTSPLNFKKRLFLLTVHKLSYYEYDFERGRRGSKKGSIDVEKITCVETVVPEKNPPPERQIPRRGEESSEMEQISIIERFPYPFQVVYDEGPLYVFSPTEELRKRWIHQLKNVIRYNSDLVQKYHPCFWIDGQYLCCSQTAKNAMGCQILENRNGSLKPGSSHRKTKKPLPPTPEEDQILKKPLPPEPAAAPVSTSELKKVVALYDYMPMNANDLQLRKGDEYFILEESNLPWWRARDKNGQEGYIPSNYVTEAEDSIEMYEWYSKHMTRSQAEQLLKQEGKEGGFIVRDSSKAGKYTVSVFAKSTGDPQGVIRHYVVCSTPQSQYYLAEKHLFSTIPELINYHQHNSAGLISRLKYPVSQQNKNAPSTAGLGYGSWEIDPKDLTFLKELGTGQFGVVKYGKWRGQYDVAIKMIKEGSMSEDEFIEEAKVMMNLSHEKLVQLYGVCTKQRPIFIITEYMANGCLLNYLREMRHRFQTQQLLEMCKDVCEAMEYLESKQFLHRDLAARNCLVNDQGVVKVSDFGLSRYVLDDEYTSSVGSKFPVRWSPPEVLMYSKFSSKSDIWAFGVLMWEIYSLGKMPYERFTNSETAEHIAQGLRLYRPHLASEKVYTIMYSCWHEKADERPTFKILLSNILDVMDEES
Excerpt: Regarding the setting of the conditions for a method for measuring the inhibitory activity of a compound against BTK kinase activity in vitro, it is described in the consumable reagent supplies price list for LabChip (registered trademark) series of PerkinElmer, Inc. that FL-PEPTIDE 2 corresponds to a substrate peptide for the measurement of BTK kinase activity. Therefore, FL-PEPTIDE 2 was used as a substrate. The purified recombinant human BTK protein used in the test was purchased from Carna Biosciences, Inc.
Regarding the measurement of the inhibitory activity of the compounds, firstly, the compounds of the present invention were diluted stepwise with DMSO. Subsequently, BTK protein, a substrate peptide (final concentration was 1 μM), magnesium chloride (final concentration was 10 mM), ATP (final concentration was 45 μM), and a DMSO solution of the compounds of the present invention (final concentration of DMSO was 5%) were added to a buffer solution for kinase reaction (20 mM HEPES (pH 7.5), 2 mM dithiotheitol, 0.01% Triton X-100), and after the solution was incubated for 40 minutes at 25° C., a kinase reaction was carried out. The reaction was terminated by adding EDTA thereto so as to obtain a final concentration of 30 mM. Finally, a substrate peptide that was not phosphorylated (S) and a phosphorylated peptide (P) were separated and detected by microchannel capillary electrophoresis with a LabChip EZ Reader II (PerkinElmer, Inc.).

A431 cells/TMD8 cells = test: Proliferation inhibitory activity against cell lines expressing BTK and EGFR, comparison of selectivity; assay type: cell-based, human; conditions: cells cultured three days with compound, CELLTITER GLO
Excerpt: TMD8 cells, which are of a diffuse large B-cell lymphoma cell line expressing BTK, were suspended in RPMI1640 medium (Life Technologies Corp.) containing 10% fetal bovine serum. A431 cells, which are of an EGFR-overexpressing, highly activated human epidermoid carcinoma cell line, were suspended in DMEM, high glucose medium (Life Technologies Corp.) containing 10% fetal bovine serum. The cell suspensions were inoculated into each well of 384-well flat-bottomed microplates, and the cells were cultured for one day at 37° C. in an incubator containing 5% carbon dioxide gas. […] A DMSO solution of the test compounds was diluted with the medium used in the suspension of the each cell, and this was added to each of the wells of the cell culture plates such that the final concentration of DMSO would be 0.2%. The cells were further cultured for three days at 37° C. in an incubator containing 5% carbon dioxide gas. […] Proliferation inhibition ratio (%)=(C−T)/(C−C0)×100
T: Luminescence intensity of a well in which the test compound was added
C: Luminescence intensity of a well in which the test compound was not added
C0: Luminescence intensity of a well measured before the addition of the test compound
When a comparison is made between the cell proliferation inhibitory activity against A431 cells that depends on the EGFR proliferation signaling and the cell proliferation inhibitory activity against TMD8 cells that depends on the BTK proliferation signaling, the influence of the respective kinases at a cellular level is able to be evaluated. That is, when the “A431 cell proliferation inhibition ratio/TMD8 cell proliferation inhibition ratio” is calculated, it is contemplated that as the value of the ratio is larger, the selectivity to BTK over EGFR in the cells is higher.

EGFR/BTK = test: BTK inhibition selectivity compared with EGFR kinase inhibitory activity (in vitro); assay type: biochemical, human; conditions: ratio of IC50 values
Procedure: Therefore, a biotinated peptide (biotin-[…]) was produced by referring to the amino acid sequence of the peptide. The purified recombinant human EGFR protein used in the test was purchased from Carna Biosciences, Inc.
Regarding the measurement of the inhibitory activity of the compounds, firstly, the compounds of the present invention were diluted stepwise with DMSO. […] The reaction was terminated by adding EDTA thereto so as to obtain a final concentration of 24 mM. Subsequently, a detection liquid containing Eu-labeled anti-phosphorylated tyrosine antibody PT66 (PerkinElmer, Inc.) and SureLight APC-SA (PerkinElmer, Inc.) was added thereto, and the system was left to stand for 2 hours or longer at room temperature.

IC50 [1] | EGFR inhibitory activity IC50 value (nM)/BTK inhibitory activity IC50 value (nM) (EGFR/BTK) | Structure (SMILES) | also measured
 |  | C=CC(=O)N1CCC[C@@H](n2nc(C(=O)Nc3nc4cc(Cl)ccc4o3)c3c(N)ncnc32)C1 [Example 1, (R)-1-(1-acryloylpiperidin-3-yl)-4-amino-N-(5-chlorobenzo[d]oxazol-2-yl)-1H-pyrazolo[3,4-d]pyrimidine-3-carboxamide] | IC50 (RBL-2H3 cells): 37 nM; Ear swelling control ratio (%) (TNP-IgE mice; 1 mg/kg oral): 66%; Ear swelling control ratio (%) (TNP-IgE mice; 3 mg/kg oral): 81%; ear swellings induced by the allergen application (TNP-IgE mice; from low dose, compared with Reference compound 1): suppressed equivalently or strongly ear swellings
0.738 nM |  | C=CC(=O)N1CCC[C@@H](n2nc(C(=O)Nc3nc4cc(C#N)ccc4o3)c3c(N)ncnc32)C1 [Example 6, (R)-1-(1-acryloylpiperidin-3-yl)-4-amino-N-(5-cyanobenzo[d]oxazol-2-yl)-1H-pyrazolo[3,4-d]pyrimidine-3-carboxamide] | A431 cell proliferation inhibition ratio/TMD8 cell proliferation inhibition ratio (A431 cells/TMD8 cells): 2786.0; Ear swelling control ratio (%) (TNP-IgE mice; 3 mg/kg oral): 45%
0.457 nM |  | C=CC(=O)N1CCC[C@@H](n2nc(C(=O)Nc3nc4cc(OC)ccc4o3)c3c(N)ncnc32)C1 [Example 7, (R)-1-(1-acryloylpiperidin-3-yl)-4-amino-N-(5-methoxybenzo[d]oxazol-2-yl)-1H-pyrazolo[3,4-d]pyrimidine-3-carboxamide] | 
1.27 nM | 22.9 | C=CC(=O)N1CCC[C@@H](n2nc(C(=O)Nc3nc4cc(CCOC)ccc4o3)c3c(N)ncnc32)C1 [Example 8, (R)-1-(1-acryloylpiperidin-3-yl)-4-amino-N-(5-(2-methoxyethyl)benzo[d]oxazol-2-yl)-1H-pyrazolo[3,4-d]pyrimidine-3-carboxamide] | 
2.14 nM | 1294.6 | C=C(C)C(=O)N1CCC[C@@H](n2nc(C(=O)Nc3nc4cc(F)ccc4o3)c3c(N)ncnc32)C1 [Example 11, (R)-4-amino-N-(5-fluorobenzo[d]oxazol-2-yl)-1-(1-methacryloylpiperidin-3-yl)-1H-pyrazolo[3,4-d]pyrimidine-3-carboxamide] | 
14.1 nM | 128.1 | C/C=C/C(=O)N1CCC[C@@H](n2nc(C(=O)Nc3nc4ccccc4o3)c3c(N)ncnc32)C1 [Example 14, (R,E)-4-amino-N-(benzo[d]oxazol-2-yl)-1-(1-(but-2-enoyl)piperidin-3-yl)-1H-pyrazolo[3,4-d]pyrimidine-3-carboxamide] | A431 cell proliferation inhibition ratio/TMD8 cell proliferation inhibition ratio (A431 cells/TMD8 cells): >1400.6
0.777 nM | 147.4 | CN(C)C/C=C/C(=O)N1CCC[C@@H](n2nc(C(=O)Nc3nc4cc(-c5cccs5)ccc4o3)c3c(N)ncnc32)C1 [Example 21, (R,E)-4-amino-N-(5-(thiophen-2-yl)benzo[d]oxazol-2-yl)-1-(1-(4-(dimethylamino)but-2-enoyl)piperidin-3-yl)-1H-pyrazolo[3,4-d]pyrimidine-3-carboxamide] | 
14.2 nM |  | CC#CC(=O)N1CCC[C@@H](n2nc(C(=O)Nc3nc4ccccc4o3)c3c(N)ncnc32)C1 [Example 22] | 
1.43 nM |  | C=CC(=O)N1CC[C@@H](n2nc(C(=O)Nc3nc4ccccc4o3)c3c(N)ncnc32)C1 [Example 27, (R)-1-(1-acryloylpyrrolidin-3-yl)-4-amino-N-(benzo[d]oxazol-2-yl)-1H-pyrazolo[3,4-d]pyrimidine-3-carboxamide] | 
0.888 nM |  | C=CC(=O)N1CC[C@@H](n2nc(C(=O)Nc3nc4cc(OC)ccc4o3)c3c(N)ncnc32)C1 [Example 38, (R)-1-(1-acryloylpyrrolidin-3-yl)-4-amino-N-(5-methoxybenzo[d]oxazol-2-yl)-1H-pyrazolo[3,4-d]pyrimidine-3-carboxamide] | 
1.25 nM |  | C=CC(=O)N1CC(n2nc(C(=O)Nc3nc4cc(Cl)ccc4o3)c3c(N)ncnc32)C1 [Example 45, 1-(1-acryloylazetidin-3-yl)-4-amino-N-(5-chlorobenzo[d]oxazol-2-yl)-1H-pyrazolo[3,4-d]pyrimidine-3-carboxamide] | 
7.34 nM | 20.4 | CN(C)C/C=C/C(=O)N1CC(n2cc(C(=O)Nc3nc4cc(Cl)ccc4o3)c3c(N)ncnc32)C1 [Example 47, (E)-4-amino-N-(5-chlorobenzo[d]oxazol-2-yl)-7-(1-(4-(dimethylamino)but-2-enoyl)azetidin-3-yl) 7H-pyrrolo[2,3-d]pyrimidine-5-carboxamide] | 
